Reference: ChEMBL document CHEMBL1136480, “Successful shape-based virtual screening: the discovery of a potent inhibitor of the type I TGFbeta receptor kinase (TbetaRI)” (Bioorg Med Chem Lett, 2003)

System: HepG2
Experiment: Inhibition of TGF-beta-induced expression of PAI-luciferase reporter in HepG2 cells
Type: functional, cell-based
Details: Homo sapiens

IC50: 60 nM
SMILES: c1ccc(-c2n[nH]cc2-c2ccnc3ccccc23)nc1
